By IC50 is commonly meant the concentration that gives 50% inhibition.

SMILES strings stand for the structures. Like-named read-outs stand apart in the source and are kept apart here.

The source of these data is patent US20230142274A1 (SIMCERE PHARMACEUTICAL CO., LTD., priority 2020, published 2023).

The test system of data set [1] is Daudi cells. Briefly: Inhibition of human Daudi lymphoma cell proliferation (Cell-Titer Glo). The class given is cell-based. Conditions: 3 days incubation, read-out: Anti-Proliferative Activity Against Daudi cells IC50. In short, it runs like this:
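Daudi cells in RPMI 1640 with 10% FBS were seeded and grown 24 h, then exposed for 3 days (37 °C, 5% CO2) to 10-point 3-fold serial dilutions at 0.25% final DMSO. Viability was read by CellTiter-Glo ATP luminescence, and IC50 was fitted from % inhibition against top/bottom controls.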

Data set [2] relates to CD-1 mouse plasma. Kind of data set: Plasma protein binding rate assay (equilibrium dialysis). The settings on record: compound 1 μM, equilibrium dialysis 6 hours at 37° C. The format is in vitro ADME. On the procedure:
1. CD-1 mouse plasma (BioIVT)
1. Formulation of a buffer solution containing 100 mM sodium phosphate and 150 mM NaCl: An alkaline solution containing Na2HPO4 (14.2 g/L) and NaCl (8.77 g/L) was formulated with ultrapure water. An acidic solution containing NaH2PO4 (12.0 g/L) and NaCl (8.77 g/L) was formulated with ultrapure water. The alkaline solution was titrated with the acidic solution until the pH value was 7.4, thus formulating the buffer solution containing 100 mM sodium phosphate and 150 mM NaCl.
2. Preparation of dialysis membrane: The dialysis membrane was immersed in ultrapure water for 60 minutes to separate the membrane into two pieces, then immersed in 20% ethanol for 20 minutes, and finally immersed in a buffer for dialysis for 20 minutes.
3. Preparation of plasma: Frozen plasma was thawed rapidly at room temperature. Thereafter, the plasma was centrifuged at 3220 g for 10 minutes at 4° C. to remove clots, and the supernatant was collected into a new centrifuge tube. The pH values of plasma were measured and recorded. The plasma with a pH value of 7 to 8 was used.
4. Formulation of compound-containing plasma samples: A 10 mM stock solution of the compound of the present disclosure or the positive control compound was diluted with DMSO to obtain a 200 μM working solution. 3 μl of the 200 μM working solution of the compound was added into 597 μl of mouse plasma to obtain a plasma sample with a final concentration of 1 μM.
5. Steps of equilibrium dialysis: The dialysis device was assembled according to the operating instructions. 120 μL of a plasma sample containing 1 μM compound was added on one side of the dialysis membrane, and an equal volume of dialysate (phosphate buffer solution) was added on the other side. Duplicate samples were set in the experiment. The dialysis plate was sealed and placed in an incubation device where the samples were incubated at 37° C. in an atmosphere containing 5% CO2 for 6 hours with a rotational speed of about 100 rpm. After the incubation was complete, the sealing membrane was removed. 50 μl of samples were respectively aspirated from the buffer solution side and the plasma side of each well and transferred into different wells of a new plate. 50 μl of blank plasma was added into the sample obtained from the phosphate buffer solution side, and an equal volume of blank phosphate buffer solution was added into the plasma sample, followed by the addition of 300 μl of acetonitrile containing the internal standard to precipitate protein. The sample was vortexed for 5 minutes and centrifuged at 3220 g for 30 minutes at 4° C. 100 μl of the supernatant was aspirated and transferred to the sample plate, mixed well with 100 μL of ultrapure water, and used for LC-MS/MS analysis.
The peak areas of the compounds on the buffer solution side and the plasma side were determined. The formula for calculating the plasma protein binding rate of the compound was as follows:
% Free rate=(the ratio of the peak area of the compound to the peak area of the internal standard on the buffer solution side/the ratio of the peak area of the compound to the peak area of the internal standard on the plasma side)×100
% Binding rate=100−% free rate
In general terms: Equilibrium dialysis compares concentrations on both sides of a semipermeable membrane.

Take `COc1ccc(-c2ccc(-c3cnc([C@H]4CC[C@H](NC(=O)OC(C)C)CC4)s3)c([S@@](=N)(=O)C3CC3)c2)cn1` (stereo in doubt) [Example 94]: the IC50 in data set [1] was determined as 20 nM. The “% Binding Rate” value in data set [2] was determined as 99.8%^.

For `CC(C)OC(=O)NC1CCC(c2ncc(-c3ccc(Nc4ccc(F)cn4)cc3S(=N)(=O)C3CC3)s2)CC1` (stereo not drawn) [Example 81, isopropyl trans-N-[4-[5-[2-(cyclopropylsulfonimidoyl)]-4-[(5-fluoro-2-pyridyl)amino]phenyl]thiazol-2-yl]cyclohexyl]carbamate], the IC50 in data set [1] (Homo sapiens, 72 h) came to 40 nM. Besides, the “% Binding Rate” value in data set [2] came to 99.7%^.

For `CC(C)OC(=O)N[C@H]1CC[C@H](c2ncc(-c3ccc(Nc4n[nH]c5ccccc45)cc3S(=O)(=O)C3CC3)s2)CC1` [Example 56, isopropyl trans-(4-(5-(4-((1H-indazol-3-yl)amino)-2-(cyclopropylsulfonyl)phenyl)thiazol-2-yl)cyclohexyl)carbamate], in data set [1] (Homo sapiens, 72 h), the IC50 was determined as 7 nM. Besides, in data set [2], the “% Binding Rate” value is on record as 97%.

Take `CC(C)OC(=O)Nc1ccc(-c2cnc(C3CCC(NC(=O)OC(C)C)CC3)s2)c(S(=N)(=O)C(C)C)c1` (stereo not drawn) [Example 3, isopropyl trans-N-[4-[2-[4-(isopropoxycarbonylamino)cyclohexyl]thiazol-5-yl]-3-(isopropylsulfonimidoyl)phenyl]carbamate]: in data set [1] (Homo sapiens, 72 h), the IC50 stood at 1080 nM. Also, in data set [2], the “% Binding Rate” value worked out at 97%.

Turning to `Cc1cc(Nc2ccc(-c3cnc([C@H]4CC[C@H](NC(=O)OC(C)C)CC4)s3)c(S(=O)(=O)C3CC3)c2)n[nH]1` [Example 48, isopropyl trans-(4-(5-(2-(cyclopropylsulfonyl)-4-((5-methyl-1H-pyrazol-3-yl)amino)phenyl)thiazol-2-yl)cyclohexyl)carbamate], the IC50 in data set [1] (Homo sapiens, 72 h) amounted to 6 nM. Moreover, in data set [2], the “% Binding Rate” value stood at 99%.

With `CC(C)OC(=O)N[C@H]1CC[C@H](c2ncc(-c3ccc(NC(=O)NCc4ccccc4)cc3S(=N)(=O)C3CC3)s2)CC1` (stereo partly drawn) [Example 65, isopropyl trans-(4-(5-(4-(3-benzylureido)-2-(cyclopropanesulfonimidoyl)phenyl)thiazol-2-yl)cyclohexyl)carbamate], in data set [1] (Homo sapiens, 72 h), the IC50 turned out to be 37 nM. In data set [2], the “% Binding Rate” value stood at 97%.

Regarding `Cc1cc(Nc2ccc(-c3cnc([C@H]4CC[C@H](NC(=O)OC(C)C)CC4)s3)c(P3(=O)CCCC3)c2)n[nH]1` [Example 47, isopropyl trans-N-[4-[5-[4-[(5-methyl-1H-pyrazol-3-yl)amino]-2-(1-oxidophospholan-1-yl)phenyl]thiazol-2-yl]cyclohexyl]carbamate], in data set [1] (Homo sapiens, 72 h), the IC50 amounted to 30 nM. Moreover, the “% Binding Rate” value in data set [2] was 99%.

Turning to `CC(C)OC(=O)Nc1ccc(-c2cnc([C@H]3CC[C@H](NC(=O)OC(C)C)CC3)s2)c(S(=N)(=O)C2CC2)c1` (stereo partly drawn) [Example 68, isopropyl trans-N-[3-(cyclopropylsulfonimidoyl)-4-[2-[4-(isopropoxycarbonylamino)cyclohexyl]thiazol-5-yl]phenyl]carbamate], the IC50 in data set [1] (Homo sapiens, 72 h) is 100 nM. Besides, the “% Binding Rate” value in data set [2] came out at 97%.

`Cc1cc(Nc2ccc(-c3cnc([C@H]4CC[C@H](NC(=O)OC(C)C)CC4)s3)c(S(=O)(=O)C3CC3)c2)nn1C` [Example 49, isopropyl trans-(4-(5-(2-(cyclopropylsulfonyl)-4-((1,5-dimethyl-1H-pyrazol-3-yl)amino)phenyl)thiazol-2-yl)cyclohexyl)carbamate]: the half-maximal inhibitory concentration (IC50) in data set [1] (Homo sapiens, 72 h) was 6 nM. The “% Binding Rate” value in data set [2] turned out to be 97%.

Turning to `CC(C)OC(=O)Nc1ccc(-c2cnc(C3CCC(NC(=O)OC(C)C)CC3)s2)c([S+]([O-])C(C)C)c1` (stereo not drawn) [Example 32, isopropyl trans-N-[4-[2-[4-(isopropoxycarbonylamino)cyclohexyl]thiazol-5-yl]-3-isopropylsulfinyl-phenyl]carbamate], the IC50 in data set [1] (Homo sapiens, 72 h) worked out at 420 nM. In data set [2], the “% Binding Rate” value was found to be 99%.

Consider `Cc1cc(Nc2ccc(-c3cnc(C4CCC(NC(=O)OC(C)C)CC4)s3)c(S(=N)(=O)C3CC3)c2)n[nH]1` (stereo not drawn) [Example 50, isopropyl trans-N-[4-[5-[2-(cyclopropylsulfonimidoyl)-4-]((5-methyl-1H-pyrazol-3-yl)amino]phenyl]thiazol-2-yl]cyclohexyl]carbamate], for which the IC50 in data set [1] (Homo sapiens, 72 h) is 26 nM. Moreover, the “% Binding Rate” value in data set [2] was found to be 96%.

For the molecule `CC(C)OC(=O)Nc1ccc(-c2cnc([C@H]3CC[C@H](NC(=O)OC(C)C)CC3)s2)c(S(=O)(=O)C(C)C)c1` [Example 2, isopropyl trans-N-[4-[2-[4-(isopropoxycarbonylamino)cyclohexyl]thiazol-5-yl]-3-isopropylsulfonyl-phenyl]carbamate], the IC50 in data set [1] (Homo sapiens, 72 h) amounted to 390 nM. In addition, the “% Binding Rate” value in data set [2] came to 99.4%^.

Consider `Cc1cc(Nc2ccc(-c3cnc([C@H]4CC[C@H](NC(=O)OC(C)C)CC4)s3)c(S(=O)(=O)C3COC3)c2)n[nH]1` [Example 92, isopropyl trans-N-[4-[5-[4-[(5-methyl-1H-pyrazol-3-yl)amino]-2-(oxetan-3-ylsulfonyl)phenyl]thiazol-2-yl]cyclohexyl]carbamate], for which the 50% inhibitory concentration (IC50) in data set [1] (Homo sapiens, 72 h) stood at 4 nM. Further, the “% Binding Rate” value in data set [2] came out at 98.8%^.

Take `Cc1cc(Nc2ccc(-c3cnc([C@H]4CC[C@H](NC(=O)OC(C)C)CC4)s3)c(S(=N)(=O)C3CC3)c2)n(C)n1` (stereo partly drawn) [Example 98, isopropyl trans-(4-(5-(2-(cyclopropanesulfonimidoyl)-4-((1,3-dimethyl-1H-pyrazol-5-yl)amino)phenyl)thiazol-2-yl)cyclohexyl)carbamate]: in data set [1] (Homo sapiens, 72 h), the 50% inhibitory concentration (IC50) is 32 nM. Besides, the “% Binding Rate” value in data set [2] is 99%.

`CC(C)OC(=O)N[C@H]1CC[C@H](c2ncc(-c3ccc(Nc4cc5ccccn5n4)cc3S(=O)(=O)C3CC3)s2)CC1` [Example 57, isopropyl trans-(4-(5-(2-(cyclopropylsulfonyl)-4-(pyrazolo[1,5-a]pyridin-2-ylamino)phenyl)thiazol-2-yl)cyclohexyl)carbamate]: the 50% inhibitory concentration (IC50) in data set [1] (Homo sapiens, 72 h) was 7 nM. Besides, the “% Binding Rate” value in data set [2] is 99.9%^.

In the case of `CC(C)OC(=O)N[C@H]1CC[C@H](c2ncc(-c3ccc(Nc4cn(C)nn4)cc3S(=N)(=O)C3CC3)s2)CC1` (some centres unmarked) [Example 54], the IC50 in data set [1] (Homo sapiens, 72 h) came to 55 nM. Besides, the “% Binding Rate” value in data set [2] is 95%.

With `Cc1cc(Nc2ccc(-c3cnc([C@H]4CC[C@H](NC(=O)OC(C)C)CC4)s3)c(P3(=O)CCC3)c2)n[nH]1` [Example 103, isopropyl trans-(4-(5-(4-((5-methyl-1H-pyrazol-3-yl)amino)-2-(1-oxophosphetan-1-yl)phenyl)thiazol-2-yl)cyclohexyl)carbamate], the IC50 in data set [1] (Homo sapiens, 72 h) was found to be 47 nM. Also, the “% Binding Rate” value in data set [2] was 98%.

`CC(C)OC(=O)Nc1ccc(-c2cnc([C@H]3CC[C@H](NC(=O)OC(C)C)CC3)s2)c(P(C)(C)=O)c1` [Example 1, isopropyl trans-N-[3-dimethylphosphoryl-4-[2-[4-(isopropoxycarbonylamino)cyclohexyl]thiazol-5-yl]phenyl]carbamate]: the half-inhibitory concentration (IC50) in data set [1] (Homo sapiens, 72 h) is 1620 nM. In data set [2], the “% Binding Rate” value worked out at 94%.

`CC(C)OC(=O)Nc1ccc(-c2cnc([C@H]3CC[C@H](NC(=O)OC(C)C)CC3)s2)c(S(=O)(=O)C2CC2)c1` [Example 33, isopropyl trans-N-[3-cyclopropylsulfonyl-4-[2-[4-(isopropoxycarbonylamino)cyclohexyl]thiazol-5-yl]phenyl]carbamate]: the 50% inhibitory concentration (IC50) in data set [1] (Homo sapiens, 72 h) is 100 nM. For the same molecule, in data set [2], the “% Binding Rate” value worked out at 99%.
